Tests used:
SHP2 [1] = biological target: T1, SHP2 (Homo sapiens, UniProt Q06124); set-up: endogenous in cells; host or cells: KYSE-520; conditions: cited from earlier work
T1 sequence (Q06124 1-593): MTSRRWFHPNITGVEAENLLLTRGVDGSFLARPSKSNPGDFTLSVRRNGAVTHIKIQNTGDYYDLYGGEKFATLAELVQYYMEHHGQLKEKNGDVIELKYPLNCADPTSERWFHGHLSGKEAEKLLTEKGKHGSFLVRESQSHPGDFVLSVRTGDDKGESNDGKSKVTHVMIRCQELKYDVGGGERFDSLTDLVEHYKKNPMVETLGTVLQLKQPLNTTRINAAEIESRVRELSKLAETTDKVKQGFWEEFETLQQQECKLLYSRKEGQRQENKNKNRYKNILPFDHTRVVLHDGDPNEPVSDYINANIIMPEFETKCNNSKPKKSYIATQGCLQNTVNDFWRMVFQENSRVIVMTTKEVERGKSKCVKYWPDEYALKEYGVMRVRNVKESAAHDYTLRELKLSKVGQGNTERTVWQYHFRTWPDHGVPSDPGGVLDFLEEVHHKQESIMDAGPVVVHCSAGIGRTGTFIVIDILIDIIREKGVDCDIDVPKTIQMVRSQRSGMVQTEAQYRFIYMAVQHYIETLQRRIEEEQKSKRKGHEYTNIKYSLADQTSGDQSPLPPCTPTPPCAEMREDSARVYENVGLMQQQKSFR

pERK1/2 = tested on: pERK1/2; set-up: method as in PMID 32910655; conditions: cited from earlier work
SHP2 [2] = biological target: T1, SHP2; experiment: SHP2 degradation by Western blotting in HEK293 cells; format: cell-based; set-up: endogenous in cells; host or cells: HEK293; conditions: HEK293, 16 h, 250 nM P9 in combination with 1 µM 3, 10 µM MG132, 1 µM MLN4924, 40 µM VHL-2 or 40 µM Lenalidomide
Procedure: HEK293, SKBR3, U2OS, MCF7 and A549 cells were grown in DMEM supplemented with 10% FBS, penicillin (50 units/mL), and streptomycin (50 μg/mL) in a 37 °C incubator containing 5% CO2. […] For western-blot analysis, protein samples were separated by SDS-PAGE, transferred to nitrocellulose membranes, and incubated overnight at 4 °C with corresponding primary antibodies diluted in 5% BSA in phosphate-buffered saline Tween (PBST). SuperSignal™ West Pico PLUS (PI34580; Thermo Scientific) was used to visualize the antibodies in the bioanalytical imaging system (Azure Biosystems c500). […] Anti-PTP1B (ab244207) antibody was purchased from Abcam. For colony formation assay, a total of approximately 200–500 cells were seeded to each well in a 12-well plate.
Supplemental Figures, Schemes, and Tables:
Figure S1. Western blots of degradation assay for PROTAC screening. (A) Degradation assay of
compo un ds i n Table 1 at 1 μM fo r 16 hours in H EK29 3 cells. (B) Degradation assay of compounds in Table
1 at 10 μM for 16 hours in HEK293 cells. (C) Degradation assay of compounds in Table 2 at 1 μM for 16

Compound | IC50 (SHP2 [1]) [nM] | IC50 (pERK1/2) [nM] | effect on P9-induced SHP2 degradation (SHP2 [2])
CCCCC1(CN)CCN(c2cnc(Sc3ccnc(N)c3Cl)c(N)n2)CC1 [compound 2] | 17 | – | –
CC1(CN)CCN(c2cnc(Sc3cccc(Cl)c3Cl)c(N)n2)CC1 [compound 3, reference compound] | – | 88 | prohibited P9-induced SHP2 degradation
